Data set [1] has as its system 58 human cancer cell lines. The data set is classed as cell-based. As for the experimental part:
Anticancer screen of JS-K against the NCI 58 human cancer cell lines. Cells initially maintained in multiple T150 tissue-culture flasks were detached from the flasks by addition of 2-3 ml of 0.05% trypsin-EDTA when cells reached 70-90% confluency. Thereafter, trypsin was inactivated by addition of 10 ml of RPMI 1640 medium containing 5% fetal bovine serum. All cells were then transferred and seeded onto 96-well microtiter plates at densities between 5,000 and 30,000 cells per well. Three cell lines were inoculated per plate. The cells were grown in RPMI 1640 supplemented with 5% fetal bovine serum and 2 mM L-glutamine for 24 h at 37° C. to allow stabilization prior to addition of JS-K. A total of 58 human cancer cell lines were used for the broad screening. The stock solution of JS-K in DMSO was serially diluted with the RPMI 1640 medium and added immediately to the microtiter plates to produce five concentrations of JS-K, i.e., 10^−4, 10^−5, 10^−6, 10^−7 and 10^−8 M. JS-K was incubated with cells for 48 h.
At the end of incubation, the cells were fixed in situ by 10% trichloroacetic acid, and washed five times with water and dried. Sulforhodamine B (0.4% in 1% acetic acid), a protein stain binding to basic amino acids of cellular macromolecules, was added to each well, and incubated for 10 min at room temperature. Unbound Sulforhodamine B is removed by washing five times with acetic acid. Then the plates were air-dried. Bound stain is solubilized with Tris buffer, and the optical densities were read at 515 nm. The optical densities generated from Sulforhodamine B staining are a function of cell mass and growth rate (Monks et al., 1991). Thus cells with small mass (e.g., leukemias) or relatively slow division rate (e.g., renal RXF393 and lung cancer HOP-92) were inoculated at the relatively high densities of 20,000-30,000 cells per well, while more rapidly dividing cells (e.g., colon HT29 and HCT-116 cell lines, and lung NCI-H460 cells) were inoculated at 5,000 cells per well. For the suspended leukemia cell subpanel, the cells were fixed to the bottom of the microtiter well by adding cold trichloroacetic acid (final concentration 16%) at the end of the drug-incubation period.
The dose-response curve is created by plotting the % growth against the log10 of the corresponding JS-K concentrations for each cell line by disease subpanel group. Three horizontal lines are provided at the % growth values of 50, 0 and −50, respectively. Thus the molar JS-K concentrations corresponding to points where the curves cross these lines represent the interpolated values that cause 50% growth inhibition (GI50, the JS-K concentration causing a 50% reduction in the net protein increase in control cells), total growth inhibition (TGI, the JS-K concentration causing amount of protein at the end of incubation to be equal to the amount at the beginning) and 50% cell killing (LC50, the JS-K concentration causing a 50% reduction in the protein of treated cells at the end of the drug incubation, compared with that at the beginning, indicating a net loss of cells following drug treatment), respectively.

A short description of data set [2]: Reactivity of JS-K with GSH (HPLC-MS, pseudo-first order kinetics). The data set is classed as physicochemical. To be noted: 37° C. The protocol:
Chromatography and Mass Spectrometry. High Performance Liquid Chromatography (HPLC) separations were carried out with a Phenomenex Luna 5 u C18(2) column (Torrance, Calif.) using a gradient of acetonitrile:water (each containing 0.1% formic acid) at a flow rate of 1 ml/min (% acetonitrile: 25% for 0-5 min followed by a linear program to 70% at 15 min).
HPLC-Mass Spectrometry (MS) studies were performed on an Agilent Capillary Series 1100 LC/MSD Ion Trap mass spectrometer with electrospray ionization in the positive ion mode (CITY, STATE). Separations were effected as above, except that the flow rate was 15 ul/min and the gradient was 10% acetonitrile for 0-5 min followed by a linear program to 70% at 15 min.
The diazeniumdiolate ion appears to resemble chloride as a leaving group in SNAr reactions (Saavedra, J. E. et al. (2001) J. Org. Chem. 66: 3090-3098). Since 1-chloro-2,4-dinitrobenzene is believed to react with GSH, it was anticipated that JS-K would be similarly converted to DNP-SG. This was indicated by HPLC-MS where there appeared to be an 85% conversion of JS-K to DNP-SG within a 30-min incubation period at 37° C. in pH 7.4 phosphate buffer. Similar results appeared in a RPMI-1640 cell culture medium. Pseudo-first order kinetic plots for the reaction of GSH with JS-K in 0.1 M phosphate buffer (pH 7.4) were obtained with GSH (1-5 mM) in large excess of the substrate. Excellent first-order behavior was observed over several half-lives, and measured first-order rate constants appeared to show a linear dependence on [GSH]. The slope and y-intercept of the line yielded values for the second-order [k2=(1.02±0.04) M^−1 s^−1] and first order [k1=(4±12)×10^−5 s^−1] rate constants for the reactions of JS-K with GSH and water, respectively, at 37° C. in 0.1 M phosphate buffer, pH 7.4. The ultraviolet spectral changes accompanying the reaction in a second cell culture medium (Dulbecco's Modified Eagle's Medium) appeared to confirm the above stated kinetic rate constants.

A further data set relates to HL-60 cells. Nature of the data set: HL-60 cell differentiation (Wright and non-specific esterase staining). The data set is classed as cell-based, human. The note with it: 0.5 uM, 3-5 days. The protocol:
Cell Growth, Differentiation and Apoptosis Assays. The number of viable cells was determined using the MTT assay according to the manufacturer's protocol (Promega, Madison, Wis.) or using a Coulter counter. Briefly, a MTT assay is an analytical technique that uses the dye dimethylthiazolyl-diphenyltetrazolium (MTT) which turns from yellow to brownish-purple as it is reduced in the mitochondria of living cells. The assay is useful in calorimetric quantitation of cell viability and proliferation. In contrast, cell differentiation was evaluated using Wright and Non-Specific Esterase (NSE) staining of cells collected on microscope slides by cytospin as previously described (Magrinat, G. et al. (1992) Blood 80: 1880-1884). Apoptosis was assayed by flow cytometry and by determining DNA fragmentation using agarose gel electrophoresis as previously described (Shami, P. J. et al. (1998) Leukemia 12: 1461-1466). For the flow cytometry assay, we used the propidium iodide staining method of Nicoletti et al. (Nicoletti, I. et al. (1991) J. Immunol. Methods 139: 271-279).
HL-60 cells were treated with JS-K at a concentration of 0.5 uM for 3-5 days. […] JS-K appears to induce cell differentiation.

`CCOC(=O)N1CCN(/[N+]([O-])=N/Oc2ccc([N+](=O)[O-])cc2[N+](=O)[O-])CC1` [JS-K, O^2-(2,4-dinitrophenyl) 1-[(4-ethoxycarbonyl)piperazin-1-yl]diazen-1-ium-1,2-diolate]: in data set [1], the CC50 is 29.5 µM; the “relative sensitivity to cytostatic and cytotoxic effects” value is listed as “most sensitive”. In data set [1] (58 human cell lines, 48 h), the 50% growth inhibitory concentration (GI50) is 1.3 µM and the “mean TGI” value stood at 6.6 µM. Also, in data set [1] (prostate cancer cell lines), the “inhibition against prostate cancer cell lines” value is “moderate inhibition”. The LC50s entry in data set [1] (some cell lines within the colon, melanoma and breast cancer subpanels) is reported as “more than 100 μM”. In data set [2] (0.1 M phosphate buffer, pH 7.4), the “first order rate constant k1, reaction with water (y-intercept)” value was “(4±12)×10^−5 s^−1” and the “second-order rate constant k2, reaction with GSH” value was 1.02 ± 0.04 M⁻¹ s⁻¹. In addition, in data set [2] (within 30-min incubation, pH 7.4 phosphate buffer), the “conversion of JS-K to DNP-SG” value amounted to 85%. Also, in the data set with HL-60 cells, the “morphology by Wright stain” value is listed as “morphologic changes consistent with a monocytic phenotype”. Besides, the “percentage of HL-60 cells expressing NSE” value with HL-60 cells (from 1) turned out to be 40%.

The record behind these values is patent publication US8404665B2, “In vivo use of glutathione S-transferase activated nitric oxide donors” (University of Utah Research Foundation, priority 2002, dated 2013).
